Reference: patent US8648059B2, “Use of epicatechin and derivatives and salts thereof for cardiac protection of ischemic myocardium and to ameliorate adverse cardiac remodeling” (The Regents of the University of California, priority 2008, dated 2014)

Assays:
Type in all cases: in vivo, rat
Sprague Dawley rats = experiment: IR (30 minutes ischemia) infarct size, single IV therapy 15 min before reperfusion
Method: Lateral thoracotamy with 30 minutes ischemia>reperfusion was performed a treated per the groups above 15 min before reperfusion IV in the femoral artery. Animals were humanely sacrificed and the hearts were then section and stained to examine tissue injury.

Sprague-Dawley rats [1] = experiment: Ischemia-reperfusion (45 min coronary ligation) infarct size, oral epicatechin pre-treatment (Example 1); conditions: for infarct area: epicatechin 1 mg/kg/day oral
Method: (§1) Adult male Sprague-Dawley rats (Harlan, Indianapolis, Ind.) weighing ˜250 g were used. Epicatechin (1 mg/kg/day; Sigma-Aldrich, St. Louis, Mo.) or vehicle (water) was administered orally by gavage once/day beginning 10 days before thoracotomy and continuing until the time of the terminal study (48 h or 3 weeks). A subgroup of “normal” animals were treated with water or epicatechin for 10 day and were used to evaluate the effects of epicatechin on hemodynamics. For 48 hr studies the groups included IR and IR+10 day epicatechin. For 3 week studies, the groups included sham, sham+10 day epicatechin, IR and IR+10 day epicatechin.
Ischemia-reperfusion: Animals were anesthetized by intraperitoneal injection of ketamine (100 mg/kg) and xylazine (10 mg/kg), intubated, and positive-pressure ventilated. Following a left thoracotomy, the left anterior descending coronary artery was ligated for 45 min, (except in shams) released and the suture left in place. The chest was closed and animals allowed to fully recover. Successful occlusion and reperfusion were verified by visual inspection of left ventricle (LV) color. Sham animals were treated identically, except the ligature was not tightened.
Determination of Infarct Size: Terminal study hearts were excised and weighed. In 48 h hearts, the area at risk was determined by the reocclusion of the snare and infusion of trypan blue (0.4%) into the cannulated aorta. Hearts were sectioned at 0 mmHg into five 2 mm rings and stained using triphenyltetrazolium chloride to determine the infarct area. Computer assisted image analysis was used using blinded operators. For 3 week studies hearts were processed as above and sectioned to identify the infarct (i.e. scar) area. The images of unfixed, stained rings were also used to measure internal and external chamber diameters, anterior and septal wall thicknesses.
Statistical Analysis Comparisons between means±S.E.M were analyzed by student's t-tests or one-way ANOVA followed by Bonferroni post-hoc. P<0.05 was considered statistically significant. The investigator who analyzed the data was blinded to what group (control vs. treatment with epicatechin) the animal belonged to.

Sprague-Dawley rats [2] = experiment: Hemodynamics in normal, sham and IR rats (Example 1)
Method: as §1
(§2) Hemodynamics: All animals were weighed and anesthetized with 5% isoflurane (maintenance at 1-2%). Arterial (carotid) and LV pressures were measured using a micromanometer just prior to sacrifice and data digitally recorded.
Hemodynamics: Hemodynamics (Table 1A) were measured in normal and normal+10 d epicatechin. […] Values shown are mean ±SEM. Statistical analysis was done by ANOVA except where denoted. In the IR group the rats are fed the control and ischemia is induced (by temporary occlusion of the coronary artery). In the IR+epicatechin the rats are given epicatechin and ischemia is induced. […] The purpose of these two groups was to determine baseline hemodynamics.

Sprague-Dawley rats [3] = experiment: Cardiac morphometry 3 weeks after IR (Example 1); conditions: epicatechin
Method: Adult male Sprague-Dawley rats (Harlan, Indianapolis, Ind.) weighing ˜250 g were used. […] Sigma-Aldrich, St. Louis, Mo.) or vehicle (water) was administered orally by gavage once/day beginning 10 days before thoracotomy and continuing until the time of the terminal study (48 h or 3 weeks). A subgroup of “normal” animals were treated with water or epicatechin for 10 day and were used to evaluate the effects of epicatechin on hemodynamics. […] Determination of Infarct Size: Terminal study hearts were excised and weighed. In 48 h hearts, the area at risk was determined by the reocclusion of the snare and infusion of trypan blue (0.4%) into the cannulated aorta. […] Computer assisted image analysis was used using blinded operators. For 3 week studies hearts were processed as above and sectioned to identify the infarct (i.e. scar) area. The images of unfixed, stained rings were also used to measure internal and external chamber diameters, anterior and septal wall thicknesses.

Sprague-Dawley rats [4] = experiment: Permanent coronary occlusion infarct size (Example 2); conditions: epicatechin 1 mg/kg/day oral
Method: Determination of Infarct Size: Terminal study hearts were excised and weighed. In 48 h hearts, the area at risk was determined by the reocclusion of the snare and infusion of trypan blue (0.4%) into the cannulated aorta. […] Computer assisted image analysis was used using blinded operators. For 3 week studies hearts were processed as above and sectioned to identify the infarct (i.e. scar) area. The images of unfixed, stained rings were also used to measure internal and external chamber diameters, anterior and septal wall thicknesses. Adult male Sprague-Dawley rats (Harlan, Indianapolis, Ind.) weighing ˜250 g were used. […] Sigma-Aldrich, St. Louis, Mo.) or vehicle (water) was administered orally by gavage once/day beginning 10 days before thoracotomy and continuing until the time of the terminal study (48 h or 3 weeks). Thoracotomy was performed at day 10. In the sham group, the chest was only opened and closed; no artery was permanently occluded. […] At 48 hours the animals were anesthetized and hemodynamics recorded. The heart was excised and for infarcted animals only the infarct size and heart structure (morphometry) were determined. […] At 3 weeks the animals were anesthetized and hemodynamics recorded. The heart was excised and for infarcted animals only the infarct size and heart structure (morphometry) were determined.

Sprague-Dawley rats [5] = experiment: Hemodynamics after permanent coronary occlusion (Example 2); conditions: for LVEDP / LVPSP / MAP: epicatechin; for HR: epicatechin 1 mg/kg/day
Method: as §2
Adult male Sprague-Dawley rats (Harlan, Indianapolis, Ind.) weighing ˜250 g were used. Epicatechin (1 mg/kg/day; Sigma-Aldrich, St. Louis, Mo.) or vehicle (water) was administered orally by gavage once/day beginning 10 days before thoracotomy and continuing until the time of the terminal study (48 h or 3 weeks). Thoracotomy was performed at day 10. In the sham group, the chest was only opened and closed; no artery was permanently occluded. For the infarct group, the left anterior descending coronary artery was permanently occluded. In the 48 hour treatment arm, the animals were allowed to heal with treatment of epicatechin at 1 mg/kg/day continued for 48 hours. At 48 hours the animals were anesthetized and hemodynamics recorded. The heart was excised and for infarcted animals only the infarct size and heart structure (morphometry) were determined. In the 3 week treatment arm, the animals were allowed to heal for 3 weeks with daily treatment of epicatechin at 1 mg/kg/day. At 3 weeks the animals were anesthetized and hemodynamics recorded. The heart was excised and for infarcted animals only the infarct size and heart structure (morphometry) were determined.
Methods of determining infarct size, hemodynamics, tissue collection statistical analysis is as described in Example 1.

Sprague-Dawley rats [6] = experiment: Cardiac morphometry after permanent coronary occlusion (Example 2); conditions: epicatechin
Method: Determination of Infarct Size: Terminal study hearts were excised and weighed. In 48 h hearts, the area at risk was determined by the reocclusion of the snare and infusion of trypan blue (0.4%) into the cannulated aorta. […] Computer assisted image analysis was used using blinded operators. For 3 week studies hearts were processed as above and sectioned to identify the infarct (i.e. scar) area. The images of unfixed, stained rings were also used to measure internal and external chamber diameters, anterior and septal wall thicknesses. Adult male Sprague-Dawley rats (Harlan, Indianapolis, Ind.) weighing ˜250 g were used. […] Sigma-Aldrich, St. Louis, Mo.) or vehicle (water) was administered orally by gavage once/day beginning 10 days before thoracotomy and continuing until the time of the terminal study (48 h or 3 weeks). Thoracotomy was performed at day 10. In the sham group, the chest was only opened and closed; no artery was permanently occluded. For the infarct group, the left anterior descending coronary artery was permanently occluded. In the 48 hour treatment arm, the animals were allowed to heal with treatment of epicatechin at 1 mg/kg/day continued for 48 hours. At 48 hours the animals were anesthetized and hemodynamics recorded. The heart was excised and for infarcted animals only the infarct size and heart structure (morphometry) were determined. In the 3 week treatment arm, the animals were allowed to heal for 3 weeks with daily treatment of epicatechin at 1 mg/kg/day. At 3 weeks the animals were anesthetized and hemodynamics recorded. The heart was excised and for infarcted animals only the infarct size and heart structure (morphometry) were determined.

[7] = 48 h IR, 10 d epicatechin pretreatment

Molecule: C[C@H]1c2cccc(O)c2C(O)=C2C(=O)[C@]3(O)C(O)=C(C(N)=O)C(=O)[C@@H](N(C)C)[C@@H]3[C@@H](O)[C@@H]21 [DOX, doxycycline]
- reduction of IR induced infarct size (Sprague Dawley rats; at 4 hours, IV 5 mg/kg): ~10%

Molecule: Oc1cc(O)c2c(c1)O[C@H](c1ccc(O)c(O)c1)[C@H](O)C2 [epicatechin]
- infarct area (Sprague-Dawley rats [1]; 3 weeks after IR, control 50.4±5.6%, p=0.05): 33.7±5.5%
- reduction in scar size (Sprague-Dawley rats [1]; 3 weeks post-IR): ~33%
- infarct area (Sprague-Dawley rats [1]; 48 h after IR, 10 day pre-treatment, control 51.4±1.8%, P<0.0001): 26.3±3.4%
- reduction in infarct size (Sprague-Dawley rats [1]; temporary occlusion experiment, FIG. 1, vs vehicle): ~50%
- HR (heart rate) (Sprague-Dawley rats [2]; 3 wk IR, epicatechin): 302 ±18^ bpm
- LVEDP (Sprague-Dawley rats [2]; 3 wk IR, epicatechin): 5.5 ± 1.5 mmHg
- LVPSP (Sprague-Dawley rats [2]; 3 wk IR, epicatechin): 108 ± 4 mmHg
- MAP (Sprague-Dawley rats [2]; 3 wk IR, epicatechin): 85 ± 4 mmHg
- LVEDP (left ventricular end diastolic pressure) (Sprague-Dawley rats [2]; [7]): 4.9 ± 0.5 mmHg
- LVPSP (left ventricular peak systolic pressure) (Sprague-Dawley rats [2]; [7]): 110 ± 5 mmHg
- MAP (mean aortic pressure) (Sprague-Dawley rats [2]; [7]): 90 ± 5 mm Hg
- HR (heart rate) (Sprague-Dawley rats [2]; 48 h IR, 10 d epicatechin pretreatment, mean ± SEM): 373 ± 17 bpm
- LVEDP (left ventricular end diastolic pressure) (Sprague-Dawley rats [2]; normal rats, 10 d epicatechin): 6.7 ± 1.3 mmHg
- LVPSP (left ventricular peak systolic pressure) (Sprague-Dawley rats [2]; normal rats, 10 d epicatechin): 112 ± 14 mmHg
- MAP (mean aortic pressure) (Sprague-Dawley rats [2]; normal rats, 10 d epicatechin): 99 ± 10 mm Hg
- HR (heart rate) (Sprague-Dawley rats [2]; normal rats, 10 d epicatechin 1 mg/kg/day oral, mean ± SEM): 346 ± 8 bpm
- HR (heart rate) (Sprague-Dawley rats [2]; sham, 3 wk study, epicatechin): 328 ± 11 bpm
- LVEDP (Sprague-Dawley rats [2]; sham, 3 wk study, epicatechin): 2.6 ± 0.2 mmHg
- LVPSP (Sprague-Dawley rats [2]; sham, 3 wk study, epicatechin): 116 ± 6.2 mmHg
- MAP (Sprague-Dawley rats [2]; sham, 3 wk study, epicatechin): 92 ± 11 mmHg
- blood pressure (Sprague-Dawley rats [2]; ten days of treatment in noninfarcted animals): did not reduce blood pressure
- AW thickness (Sprague-Dawley rats [3]; 3 wk IR): 0.41 ± 0.02 mm
- HW/BW (heart weight/body weight) (Sprague-Dawley rats [3]; 3 wk IR): 4.5 ± 0.2
- Inner LV diam. (Sprague-Dawley rats [3]; 3 wk IR): 0.55 ± 0.05 mm
- Outer LV diam. (Sprague-Dawley rats [3]; 3 wk IR): 1.6 ± 0.04 mm
- SW thickness (Sprague-Dawley rats [3]; 3 wk IR): 0.49 ± 0.03 mm
- AW thickness (Sprague-Dawley rats [3]; sham, 3 wk study): 0.53 ± 0.05 mm
- HW/BW (heart weight/body weight) (Sprague-Dawley rats [3]; sham, 3 wk study): 3.2 ± 0.5
- Inner LV diam. (Sprague-Dawley rats [3]; sham, 3 wk study): 0.52 ± 0.08 mm
- Outer LV diam. (Sprague-Dawley rats [3]; sham, 3 wk study): 1.6 ± 0.1 mm
- SW thickness (Sprague-Dawley rats [3]; sham, 3 wk study): 0.47 ± 0.04 mm
- reduction of infarct size (Sprague-Dawley rats [4]; 3 weeks after infarction (permanent occlusion), FIG. 9a): 33%
- reduction of infarct size (Sprague-Dawley rats [4]; 48 h after permanent coronary occlusion, FIG. 8): 50%
- LVEDP (Sprague-Dawley rats [5]; PCO 3 week): 11 ± 1 mmHg
- LVPSP (Sprague-Dawley rats [5]; PCO 3 week): 102 ± 3 mmHg
- MAP (Sprague-Dawley rats [5]; PCO 3 week): 82 ± 2 mmHg
- HR (Sprague-Dawley rats [5]; PCO 3 week): 268 ± 10 bpm
- LVEDP (Sprague-Dawley rats [5]; PCO 48 h): 5.8 ± 1.2 mmHg
- LVPSP (Sprague-Dawley rats [5]; PCO 48 h): 107 ± 4 mmHg
- MAP (Sprague-Dawley rats [5]; PCO 48 h): 91 ± 5 mmHg
- HR (Sprague-Dawley rats [5]; PCO 48 h): 342 ± 8 bpm
- HR (Sprague-Dawley rats [5]; sham, 3 weeks after thoracotomy): 303 ± 10 bpm
- LVEDP (Sprague-Dawley rats [5]; sham, 3 weeks): 6.4 ± 0.9 mmHg
- LVPSP (Sprague-Dawley rats [5]; sham, 3 weeks): 118 ± 4 mmHg
- MAP (Sprague-Dawley rats [5]; sham, 3 weeks): 92 ± 4 mmHg
- LVEDP (Sprague-Dawley rats [5]; sham, 48 h): 4.3 ± 1.2 mmHg
- LVPSP (Sprague-Dawley rats [5]; sham, 48 h): 102 ± 2 mmHg
- MAP (Sprague-Dawley rats [5]; sham, 48 h): 83 ± 2 mmHg
- HR (Sprague-Dawley rats [5]; sham, 48 h after thoracotomy): 334 ± 10 bpm
- AW thickness (Sprague-Dawley rats [6]; PCO 3 week): 0.446 ± 0.04 mm
- HW/BW (Sprague-Dawley rats [6]; PCO 3 week): 4.4 ± 0.7
- Inner LV diam. (Sprague-Dawley rats [6]; PCO 3 week): 0.546 ± 0.046 mm
- Outer LV diam. (Sprague-Dawley rats [6]; PCO 3 week): 1.495 ± 0.031 mm
- SW thickness (Sprague-Dawley rats [6]; PCO 3 week): 0.475 ± 0.02 mm
- AW thickness (Sprague-Dawley rats [6]; PCO 48 h): 0.57 ± 0.03 mm
- SW thickness (Sprague-Dawley rats [6]; PCO 48 h): 0.57 ± 0.02 mm
- AW thickness (Sprague-Dawley rats [6]; sham, 3 weeks): 0.58 ± 0.05 mm
- HW/BW (Sprague-Dawley rats [6]; sham, 3 weeks): 3.82 ± 0.3
- Inner LV diam. (Sprague-Dawley rats [6]; sham, 3 weeks): 0.490 ± 0.046 mm
- Outer LV diam. (Sprague-Dawley rats [6]; sham, 3 weeks): 1.469 ± 0.075 mm
- SW thickness (Sprague-Dawley rats [6]; sham, 3 weeks): 0.38 ± 0.04 mm
- AW thickness (Sprague-Dawley rats [6]; sham, 48 h): 0.54 ± 0.05 mm
- SW thickness (Sprague-Dawley rats [6]; sham, 48 h): 0.33 ± 0.06 mm
- reduction of IR induced infarct size (Sprague Dawley rats; at 48 h, IV 10 mg/kg): 36%

Molecule: catechin
- area at risk (Sprague Dawley rats; methods of Example 5, FIG. 16): no effect
- infarction size (Sprague Dawley rats; methods of Example 5, FIG. 16): no effect
